# US12583815B2, “Inhibitors of YAP/TAZ-TEAD oncoproteins, synthesis and use thereof” (BRIDGENE BIOSCIENCES, INC., priority 2020, dated 2026)
# Target: T1, TEAD1 (Homo sapiens, UniProt P28347)
# T1 construct: endogenous in cells; host or cells: MCF-7
# Experiment: TEAD1-Luciferase reporter assay (MCF-7 cell-based TEAD1-Luc assay)
# Settings: cells treated with compound overnight, luciferase chemiluminescence readout
# Procedure: TEAD1-Luciferase Reporter Assay to Characterize the Pharmacological Properties of the Tead1 Covalent Inhibitors
# FIG. 1 is a schematic illustration of the mechanism of TEAD1 inhibition by the disclosed compounds, which is the theoretical basis for the development of a TEAD-YAP/TAZ cell-based functional assay to characterize the pharmacological properties of the synthesized inhibitor compounds. The MCF-7 cell-based TEAD1-Luc assay for the IC50 measurement was performed as below. Compounds 2, 4, 5, and 7, representing different chemical scaffolds, were characterized. About 200 μL of culture medium was placed in each of the 10^4 cell/well in a 96-well plate. The next day the cells were treated with the synthesized compounds for overnight. The luciferase activity was measured with a chemiluminescent assay kit. Specifically, the plate was equilibrated at room temperature. […] and 50 μL of the medium was left inside. To each well was added 50 μL Luciferase reagents. The plates were gently rocked for more than about 15 minutes at room temperature. The luminescence signal was then read and recorded. Table 2 below summarizes the measured IC50 values for the disclosed compounds.
# T1 sequence (P28347 whole entry): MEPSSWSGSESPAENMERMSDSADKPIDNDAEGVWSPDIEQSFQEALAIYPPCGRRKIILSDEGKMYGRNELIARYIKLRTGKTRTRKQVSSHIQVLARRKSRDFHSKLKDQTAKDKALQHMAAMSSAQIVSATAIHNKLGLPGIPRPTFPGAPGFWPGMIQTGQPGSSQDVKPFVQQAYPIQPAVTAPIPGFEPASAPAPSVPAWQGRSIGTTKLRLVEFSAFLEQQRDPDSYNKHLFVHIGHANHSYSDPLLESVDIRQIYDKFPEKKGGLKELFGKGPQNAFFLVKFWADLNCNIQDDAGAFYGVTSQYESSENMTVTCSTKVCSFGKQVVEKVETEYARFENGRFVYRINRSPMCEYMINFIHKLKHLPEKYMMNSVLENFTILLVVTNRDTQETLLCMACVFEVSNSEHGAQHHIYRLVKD
row,SMILES,IC50
1,"C=CC(=O)NC1CCC(Oc2cc(C(F)(F)F)on2)C1 (stereo not shown) [Compound 46, N-(3-((5-(trifluoromethyl)isoxazol-3-yl)oxy)cyclopentyl)acrylamide]",100 to 5000 nM
2,"C=CC(=O)Nc1ccc2c(c1)CCC/C2=N\OCC [Compound 47, (E)-N-(5-(ethoxyimino)-5,6,7,8-tetrahydronaphthalen-2-yl)acrylamide]",≤ 100 nM
3,"C=CC(=O)Nc1ccc2c(c1)CCC/C2=N\OCCOCC [Compound 48, (E)-N-(5-((2-ethoxyethoxy)imino)-5,6,7,8-tetrahydronaphthalen-2-yl)acrylamide]",≤ 100 nM
4,"C=CC(=O)Nc1ccc2c(c1)CCC/C2=N\OCC(C)C [Compound 49, (E)-N-(5-(isobutoxyimino)-5,6,7,8-tetrahydronaphthalen-2-yl)acrylamide]",≤ 100 nM
5,"C=CC(=O)Nc1ccc2c(c1)CCN(CCCCC)C2=O [Compound 50, N-(1-oxo-2-pentyl-1,2,3,4-tetrahydroisoquinolin-6-yl)acrylamide]",100 to 5000 nM
6,"C=CC(=O)N1CC(Oc2ccc(C(F)(F)F)cc2)C1 [Compound 56, 1-(3-(4-(trifluoromethyl)phenoxy)azetidin-1-yl)prop-2-en-1-one]",100 to 5000 nM
7,"C=CC(=O)N1CC(Cc2ccc(C(F)(F)F)cc2)C1 [Compound 59, 1-(3-(4-(trifluoromethyl)benzyl)azetidin-1-yl)prop-2-en-1-one]",100 to 5000 nM
8,"C=CC(=O)N1CC(NCc2cccc(C(F)(F)F)c2)C1 [Compound 60, 1-(3-((3-(trifluoromethyl)benzyl)amino)azetidin-1-yl)prop-2-en-1-one]",100 to 5000 nM
9,"C=CC(=O)NC1CC2(CC(NCc3cccc(C(F)(F)F)c3)C2)C1 (stereo not shown) [Compound 63, N-(6-((3-(trifluoromethyl)benzyl)amino)spiro[3.3]heptan-2-yl)acrylamide]",≤ 100 nM

# Results, then the compound that gave them:
row,IC50,SMILES
1,100 to 5000 nM,"C=CC(=O)N[C@@H]1CC[C@@H](Oc2cccc(C(F)(F)F)c2)C1 [Compound 43, N-((1R,3R)-3-(3-(trifluoromethyl)phenoxy)cyclopentyl)acrylamide]"
2,100 to 5000 nM,"C=CC(=O)N[C@H]1CC[C@H](Oc2cccc(C(F)(F)F)c2)C1 [Compound 44, N-((1S,3S)-3-(3-(trifluoromethyl)phenoxy)cyclopentyl)acrylamide]"
3,100 to 5000 nM,"C=CC(=O)NC1CCC(Oc2cccc(C(F)(F)F)c2)C1 (stereo not shown) [Compound 45, N-(3-(3-(trifluoromethyl)phenoxy)cyclopentyl)acrylamide]"
4,100 to 5000 nM,"C=CC(=O)Nc1ccc(-c2cc(C(F)(F)F)ccn2)cc1 [Compound 51, N-(4-(4-(trifluoromethyl)pyridin-2-yl)phenyl)acrylamide]"
5,≤ 100 nM,"C=CC(=O)Nc1ccc(-c2cncc(C(F)(F)F)c2)cc1 [Compound 52, N-(4-(5-(trifluoromethyl)pyridin-3-yl)phenyl)acrylamide]"
6,100 to 5000 nM,"C=CC(=O)Nc1ccc(-c2cc(C(F)(F)F)cnn2)cc1 [Compound 53, N-(4-(5-(trifluoromethyl)pyridazin-3-yl)phenyl)acrylamide]"
7,≤ 100 nM,"C=CC(=O)Nc1ccc(-c2cc(C(F)(F)F)sn2)cc1 [Compound 54, N-(4-(5-(trifluoromethyl)isothiazol-3-yl)phenyl)acrylamide]"
8,100 to 5000 nM,"C=CC(=O)Nc1ccc(-c2ccn(CC(F)(F)F)n2)cc1 [Compound 55, N-(4-(1-(2,2,2-trifluoroethyl)-1H-pyrazol-3-yl)phenyl)acrylamide]"
9,≤ 100 nM,"C=CC(=O)NC1CC(COc2cccc(C(F)(F)F)c2)C1 (stereo not shown) [Compound 58, N-(3-((3-(trifluoromethyl)phenoxy)methyl)cyclobutyl)acrylamide]"
10,≤ 100 nM,"C=CC(=O)NC1CC(OCc2cccc(C(F)(F)F)c2)C1 (stereo not shown) [Compound 61, N-(3-((3-(trifluoromethyl)benzyl)oxy)cyclobutyl)acrylamide]"
11,≤ 100 nM,"C=CC(=O)NC12CC(COc3cccc(C(F)(F)F)c3)(C1)C2 [Compound 62, N-(3-((3-(trifluoromethyl)phenoxy)methyl)bicyclo[1.1.1]pentan-1-yl)acrylamide]"
12,≥ 5000 nM,"C=CC(=O)NC1CC2(C1)CC(Oc1cccc(C(F)(F)F)c1)C2 (stereo not shown) [Compound 64, N-(6-(3-(trifluoromethyl)phenoxy)spiro[3.3]heptan-2-yl)acrylamide]"
13,100 to 5000 nM,"C=CC(=O)Nc1ccc(-c2cc(C(C)(C)C)on2)cc1 [Compound 65, N-(4-(5-(tert-butyl)isoxazol-3-yl)phenyl)acrylamide]"
